Laboratory results: patent US20250197387A1, “BCL-XL DEGRADERS AND USES THEREOF” (Kymera Therapeutics, Inc., priority 2021, published 2025)

Tests used:
Assay type in all cases: cell-based
MOLT-4 cells = test: CTG (CellTiter-Glo) cell viability assay, MOLT-4; conditions: Homo sapiens, MOLT-4, 72 h, 3 day incubation, read-out: CTG Cell Viability Assay - MOLT-4 3 day: Average external-IC50
Procedure: Compound-mediated viability effect on MOLT-4 and Caki-2 was quantitatively determined using the CellTiter-Glo® Luminescent Cell Viability Assay kit from Promega (Catalog number G7570) following manufacturer's recommended procedures. Briefly, MOLT-4 and Caki-2 cells were seeded into 384 well plates (Grenier Bio-One, Catalog number 781080) with a density of 10,000 cells per well. Compounds were then added to the assay plate with final top concentration of 10 μM and 1:3 dilution series with total of 9 doses. The final DMSO concentration is normalized to 0.2%. The assay plates were incubated at 37° C., for 3 days under 5% CO2. Then the assay plate was equilibrated at room temperature for 10 minutes. To determine cell viability, 30 uL CellTiter Glo reagent was added to each well and the assay plate was centrifuged at 1000 rpm for 30 second, incubated at room temperature for 10 min, and analyzed by detecting the luminescence using a multimode plate reader (EnVision 2105, PerkinElmer). The data was then analyzed by software Prism 7.0 from GraphPad and the dose response curves are fit using a three-parameter logistic equation to calculate IC50.
The letter codes for MOLT-4 IC50 include: A (<0.1 μM); B (0.1-1.0 μM); C (>1.0-3.0 μM); and D (>3.0 μM). The letter codes for Caki-2 IC50 include: A (<0.1 μM); B (0.1-1.0 μM); C (>1.0-10.0 μM); and D (>10.0 μM).

BCL-XL [1] = target: T1, BCL-XL (Homo sapiens, UniProt Q07817); test: Bcl-xL ELISA degradation in MOLT-4 cells, 6 h; conditions: for DC50: read-out: Bcl-xL ELISA in MOLT-4 degradation 6 h: Mean external-Abs DC50
T1 construct: endogenous in cells; host or cells: MOLT-4
Procedure: The letter codes for BCL-XL DC50 include: A (<0.01 μM); B (0.01-0.1 μM); C (>[…]); D (>0.5-1.0 μM); and E (>1.0 μM). The letter codes for Dmax % include A (>75%); B (50 to 75%); C (<50%).

BCL-XL [2] = target: T1, BCL-XL; test: BCL-XL degradation assay, western blot in MOLT-4 cells, 16 h; conditions: western blot, MOLT-4 cells, 16 h
How it was run: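 Infrared-imaged western blots quantified BCL-xL (normalised against beta-actin/GAPDH) after 16 hr, 37° C exposure of MOLT-4 cells to 0.02-10 μM compound; results given as DC50 and Dmax % bins.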

T1 sequence (Q07817 whole entry): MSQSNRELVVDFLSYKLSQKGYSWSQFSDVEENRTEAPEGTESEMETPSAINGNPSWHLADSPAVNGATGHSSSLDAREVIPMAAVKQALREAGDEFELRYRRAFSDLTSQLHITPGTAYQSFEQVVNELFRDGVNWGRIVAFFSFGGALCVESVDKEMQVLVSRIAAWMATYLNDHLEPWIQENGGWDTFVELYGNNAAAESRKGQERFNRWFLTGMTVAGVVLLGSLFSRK

| SMILES | IC50 (MOLT-4 cells) [nM] | also measured |
| --- | --- | --- |
| Cc1ncsc1-c1ccc(CNC(=O)[C@@H]2C[C@@H](O)CN2C(=O)[C@@H](NC(=O)C2(F)CC2)C(C)(C)C)c(OCCCC(=O)N(C)CC[C@H](CSc2ccccc2)Nc2ccc(S(=O)(=O)NC(=O)c3ccc(N4CCN(CC5=C(c6ccc(Cl)cc6)CCC(C)(C)C5)CC4)cc3)cc2S(=O)(=O)C(F)(F)F)c1 [I-146] | 100 to 1000 |  |
| Cc1ncsc1-c1ccc([C@H](CC(=O)N(C)CCCCCC(=O)N2CCN(CC[C@H](CSc3ccccc3)Nc3ccc(S(=O)(=O)NC(=O)c4ccc(N5CCN(CC6=C(c7ccc(Cl)cc7)CCC(C)(C)C6)CC5)cc4)cc3S(=O)(=O)C(F)(F)F)CC2)NC(=O)[C@@H]2C[C@@H](O)CN2C(=O)[C@@H](NC(=O)C2(F)CC2)C(C)(C)C)cc1 [I-147] | 1000 to 3000 |  |
| Cc1ncsc1-c1ccc([C@H](C)NC(=O)[C@@H]2C[C@@H](O)CN2C(=O)[C@@H](NC(=O)CCCCCCCCC(=O)N(C)CC#Cc2ccc(OCCCc3ccc(N4CCc5cccc(C(=O)Nc6nc7ccccc7s6)c5C4)nc3C(=O)O)c(F)c2)C(C)(C)C)cc1 [I-148] | < 100 |  |
| Cc1ncsc1-c1ccc([C@H](C)NC(=O)[C@@H]2C[C@@H](O)CN2C(=O)[C@@H](NC(=O)C2(F)CC2)C(C)(C)C)c(OCCN2CCN(CC[C@H](CSc3ccccc3)Nc3ccc(S(=O)(=O)NC(=O)c4ccc(N5CCN(CC6=C(c7ccc(Cl)cc7)CCC(C)(C)C6)CC5)cc4)cc3S(=O)(=O)C(F)(F)F)CC2)c1 [I-154] | 1000 to 3000 |  |
| Cc1ncsc1-c1ccc(CNC(=O)[C@@H]2C[C@@H](O)CN2C(=O)[C@@H](NC(=O)C2(F)CC2)C(C)(C)C)c(OCC(C)N2CCN(CC[C@H](CSc3ccccc3)Nc3ccc(S(=O)(=O)NC(=O)c4ccc(N5CCN(CC6=C(c7ccc(Cl)cc7)CCC(C)(C)C6)CC5)cc4)cc3S(=O)(=O)C(F)(F)F)CC2)c1 (stereo partly shown) [I-155] | < 100 |  |
| Cc1cc(N(CCCC(=O)N(C)CCOCC(=O)N[C@H](C(=O)N2C[C@H](O)C[C@H]2C(=O)N[C@@H](C)c2ccc(-c3scnc3C)cc2)C(C)(C)C)c2ccc(-c3cnn(CC4CCCCC4)c3C)c(C(=O)O)n2)nnc1Nc1nc2ccccc2s1 [I-156] | > 3000 |  |
| Cc1cc(N(CCCC(=O)N(C)CCCCOCC(=O)N[C@H](C(=O)N2C[C@H](O)C[C@H]2C(=O)N[C@@H](C)c2ccc(-c3scnc3C)cc2)C(C)(C)C)c2ccc(-c3cnn(CC4CCCCC4)c3C)c(C(=O)O)n2)nnc1Nc1nc2ccccc2s1 [I-157] | > 3000 |  |
| Cc1ncsc1-c1ccc([C@@H](CC(=O)N(C)CCCCCC(=O)N2CCN(CC[C@H](CSc3ccccc3)Nc3ccc(S(=O)(=O)NC(=O)c4ccc(N5CCN(CC6=C(c7ccc(Cl)cc7)CCC(C)(C)C6)CC5)cc4)cc3S(=O)(=O)C(F)(F)F)CC2)NC(=O)[C@@H]2C[C@@H](O)CN2C(=O)[C@@H](NC(=O)C2(F)CC2)C(C)(C)C)cc1 [I-159] | 100 to 1000 |  |
| Cc1ncsc1-c1ccc([C@H](C)NC(=O)[C@@H]2C[C@@H](O)CN2C(=O)[C@@H](NC(=O)CCCCCC(=O)N2CCN(CC[C@H](CSc3ccccc3)Nc3ccc(S(=O)(=O)NC(=O)c4cccc(N5CCc6cccc(C(=O)Nc7nc8ccccc8s7)c6C5)n4)cc3S(=O)(=O)C(F)(F)F)CC2)C(C)(C)C)cc1 [I-160] | > 3000 |  |
| Cc1ncsc1-c1ccc(CNC(=O)[C@@H]2C[C@@H](O)CN2C(=O)[C@@H](NC(=O)C2(F)CC2)C(C)(C)C)c(OCC(=O)N(C)CC[C@H](CSc2ccccc2)Nc2ccc(S(=O)(=O)NC(=O)c3ccc(N4CCN(CC5=C(c6ccc(Cl)cc6)CCC(C)(C)C5)CC4)cc3)cc2S(=O)(=O)C(F)(F)F)c1 [I-161] | > 3000 |  |
| Cc1ncsc1-c1ccc([C@H](C)NC(=O)[C@@H]2C[C@@H](O)CN2C(=O)C(c2cc(N3CC4(CCN(CCNC(=O)c5nc(N6CCc7cccc(C(=O)Nc8nc9ccccc9s8)c7C6)ccc5-c5cnn(CC6CCCCC6)c5C)CC4)C3)no2)C(C)C)cc1 (stereo partly shown) [I-165] | 100 to 1000 |  |
| Cc1ncsc1-c1ccc(CNC(=O)[C@@H]2C[C@@H](O)CN2C(=O)[C@@H](NC(=O)C2(F)CC2)C(C)(C)C)c(CCCN2CCN(CC[C@H](CSc3ccccc3)Nc3ccc(S(=O)(=O)NC(=O)c4ccc(N5CCN(CC6=C(c7ccc(Cl)cc7)CCC(C)(C)C6)CC5)cc4)cc3S(=O)(=O)C(F)(F)F)CC2)c1 [I-211] | 100 to 1000 | Dmax (BCL-XL [1]): < 50%; DC50 (BCL-XL [1]): > 1000 nM |
| Cc1cc(N2CCC(C(=O)N[C@H](C(=O)N3C[C@H](O)C[C@H]3C(=O)N[C@@H](C)c3ccc(-c4scnc4C)cc3)C(C)(C)C)CC2)ccc1S(=O)(=O)NC(=O)c1nc(N2CCc3cccc(C(=O)Nc4nc5ccccc5s4)c3C2)ccc1-c1cnn(CC2CCCCC2)c1C [I-275] |  | Dmax (BCL-XL [1]): > 75%; DC50 (BCL-XL [1]): 10 to 100 nM; Dmax (BCL-XL [2]; read-out: Bcl-xL WB in MOLT-4 degradation 16 h: Average Dmax %): > 75%; DC50 (BCL-XL [2]; read-out: Bcl-xL WB in MOLT-4 degradation 16 h: Mean external-Abs DC50): < 10 nM |

Continued, in another order:

| IC50 (MOLT-4 cells) [nM] | SMILES | also measured |
| --- | --- | --- |
| > 3000 | Cc1ncsc1-c1ccc([C@H](C)NC(=O)[C@@H]2C[C@@H](O)CC2C(=O)[C@@H](NC(=O)CCCC(=O)N2CCN(C(=O)COC3(Cn4cc(-c5ccc(N6CCc7cccc(C(=O)Nc8nc9ccccc9s8)c7C6)nc5C(=O)O)cn4)CCCCC3)CC2)C(C)(C)C)cc1 (stereo partly shown) [I-149] |  |
| 100 to 1000 | Cc1ncsc1-c1ccc([C@H](C)NC(=O)[C@@H]2C[C@@H](O)CN2C(=O)[C@@H](NC(=O)CCCC(=O)N(C)CCCC2(Cn3ncc(-c4ccc(N5CCc6cccc(C(=O)Nc7nc8ccccc8s7)c6C5)nc4C(=O)O)c3C)CCCCC2)C(C)(C)C)cc1 [I-150] |  |
| 1000 to 3000 | Cc1ncsc1-c1ccc([C@H](C)NC(=O)[C@@H]2C[C@@H](O)CN2C(=O)[C@@H](NC(=O)COCCN2CCC(NC(=O)c3nc(N4CCc5cccc(C(=O)Nc6nc7ccccc7s6)c5C4)ccc3-c3cnn(CC4CCCCC4)c3C)CC2)C(C)(C)C)cc1 [I-152] |  |
| 1000 to 3000 | Cc1ncsc1-c1ccc([C@H](C)NC(=O)[C@@H]2C[C@@H](O)CN2C(=O)[C@@H](NC(=O)N2CC(CN3CCC(CNC(=O)c4nc(N5CCc6cccc(C(=O)Nc7nc8ccccc8s7)c6C5)ccc4-c4cnn(CC5CCCCC5)c4C)CC3)C2)C(C)(C)C)cc1 [I-153] |  |
| 100 to 1000 | Cc1ncsc1-c1ccc([C@@H](C)NC(=O)[C@@H]2C[C@@H](O)CN2C(=O)[C@@H](NC(=O)CCCCCC(=O)N(C)CCCC2(Cn3ncc(-c4ccc(N5CCc6cccc(C(=O)Nc7nc8ccccc8s7)c6C5)nc4C(=O)O)c3C)CCCCC2)C(C)(C)C)cc1 [I-162] |  |
| 100 to 1000 | Cc1ncsc1-c1ccc([C@H](C)NC(=O)[C@@H]2C[C@@H](O)CN2C(=O)[C@@H](NC(=O)COC2CCN(CCNC(=O)c3nc(N4CCc5cccc(C(=O)Nc6nc7ccccc7s6)c5C4)ccc3-c3cnn(CC4CCCCC4)c3C)CC2)C(C)(C)C)cc1 [I-163] |  |
| 100 to 1000 | Cc1ncsc1-c1ccc([C@H](C)NC(=O)[C@@H]2C[C@@H](O)CN2C(=O)[C@@H](NC(=O)CN2CCN(CCNC(=O)c3nc(N4CCc5cccc(C(=O)Nc6nc7ccccc7s6)c5C4)ccc3-c3cnn(CC4CCCCC4)c3C)CC2)C(C)(C)C)cc1 [I-164] |  |
| 100 to 1000 | Cc1ncsc1-c1ccc([C@H](C)NC(=O)[C@@H]2C[C@@H](O)CN2C(=O)[C@H](NC(=O)CCCCCCCS(=O)(=O)NC(=O)c2nc(N3CCc4cccc(C(=O)Nc5nc6ccccc6s5)c4C3)ccc2-c2cnn(CC3CCOCC3)c2C)C(C)(C)C)cc1 [I-166] |  |
| 100 to 1000 | Cc1ncsc1-c1ccc(CNC(=O)[C@@H]2C[C@@H](O)CN2C(=O)[C@@H](NC(=O)C2(F)CC2)C(C)(C)C)c(OCCN2CCN(CC[C@H](CSc3ccccc3)Nc3ccc(S(=O)(=O)NC(=O)c4csc(N5CCc6cccc(C(=O)Nc7nc8ccccc8s7)c6C5)n4)cc3S(=O)(=O)C(F)(F)F)CC2)c1 [I-167] |  |
| 100 to 1000 | Cc1ncsc1-c1ccc(CNC(=O)[C@@H]2C[C@@H](O)CN2C(=O)[C@@H](NC(=O)C2(F)CC2)C(C)(C)C)c(OCCCCC(=O)N2CCN(CCCC3(Cn4ncc(-c5ccc(N6CCc7cccc(C(=O)Nc8nc9ccccc9s8)c7C6)nc5C(=O)O)c4C)CCCCC3)CC2)c1 [I-169] |  |
